# Patent US20220213047A1, “CARBONIC ANHYDRASE INHIBITORS FOR TREATMENT OF NEISSERIA GONORRHOEAE INFECTION” (Purdue Research Foundation, priority 2021, published 2022)
# Tests used:
# Klebsiella spp. = assay: MIC50 against pathogenic and commensal bacteria: Klebsiella spp.; type: cell-based; conditions: Klebsiella spp. (4 strains); normal
# Description: (§1) We have shown that CAIs display a narrow-spectrum of activity (Table 6). We have previously shown that CAIs have potential as anti-enterococcal agents for decolonization of the gut and treating systemic vancomycin-resistant enterococci (VRE) infections without affecting commensal strains common in the human microbiome or other pathogenic bacteria. […] The extremely narrow spectrum of this class of inhibitors would be a positive for clinical use as the molecules: 1) would not have deleterious effects on normal microbiota, and 2) would have less opportunity for resistance to arise to other important pathogenic strains aside from VRE.
# Enterobacter spp. = assay: MIC50 against pathogenic and commensal bacteria: Enterobacter spp.; type: cell-based; conditions: Enterobacter spp. (4 strains); normal
# Description: as §1
# Bacteroides = assay: MIC50 against pathogenic and commensal bacteria: Bacteroides; type: cell-based; conditions: Bacteroides (9 strains); normal
# Description: as §1
# ATCC strain 700825 = assay: MICs against ATCC strain 700825; type: cell-based, N. gonorrhoeae; conditions: Neisseria gonorrhoeae
# Procedure: These tests were performed in normal culture conditions with standard CO2 levels and in CO2 (5% in incubator) conditions.
# Lactobacillus sp = assay: MIC50 against pathogenic and commensal bacteria: Lactobacillus sp; type: cell-based; conditions: Lactobacillus sp (12 strains); normal
# Description: as §1
# N. gonorrhoeae = assay: Checkerboard assay, synergy with AZI; type: cell-based; conditions: combination with AZI, standard checkerboard assay
# Description: CAIs work synergistically with approved antibiotics—Dual therapy with ceftriaxone and azithromycin is the recommended approach to treat infections caused by N. gonorrhoeae. The use of two antibiotics in conjunction is thought to curb the rapid emergence of resistance to either antibiotic, if used alone. Thus, we investigated the potential of CAIs to be used in combination with other antibiotics against N. gonorrhoeae^56 (FIG. 5).
# Bifidobacterium sp = assay: MIC50 against pathogenic and commensal bacteria: Bifidobacterium sp; type: cell-based; conditions: Bifidobacterium sp (18 strains); normal
# Description: as §1
# S. aureus = assay: MIC50 against pathogenic and commensal bacteria: S. aureus; type: cell-based; conditions: Staphylococcus aureus; S. aureus (12 strains); normal
# Description: as §1
smiles,measurement,setting,value
CCOc1ccc2nc(S(N)(=O)=O)sc2c1 [Ethoxzolamide],MIC50,Klebsiella spp.,> 256 µg/mL
same,MIC50,Enterobacter spp.,> 256 µg/mL
same,MIC50,Bacteroides,> 256 µg/mL
same,MIC,"ATCC strain 700825; ATCC700825, In CO2",64 µg/mL
same,MIC,"ATCC strain 700825; ATCC700825, In air",0.5 µg/mL
same,MIC50,Lactobacillus sp,> 256 µg/mL
same,FIC,N. gonorrhoeae,0.240
same,MIC50,Bifidobacterium sp,> 256 µg/mL
same,MIC50,S. aureus,> 256 µg/mL
